Measurements from US9393447B2, “Liquid non-ionic salt-free skin and hair treatment composition that contains Lauroyl N-Methyl Glucamide” (Formula XO, Inc., priority 2013, dated 2016).

What was measured:
[1] = Temperature at which LMG solutions solidify (gel) on cooling; format: physicochemical
Procedure: The pH was then adjusted to 4-5 with HC1. Separate solutions were also prepared with increasing final concentrations of decyl glucoside: 0.0, 0.5, 1.0, 2.0, 3.0, 4.0, 5.0, 6.0. The compositions were brought into clear, colorless single phase solutions by heating to 60° C. The solutions were then cooled in a refrigerated chamber and the temperature at which gelling occurred was noted. As the concentration of decyl glucoside increased the temperature at which the LMG solution gelled decreased, forming a non-gelling glass at decyl glucoside concentrations of 5% and above. Thus the addition of decyl glucoside at concentrations of 5% or greater to a solution of 10% LMG and 10% glycerol prevents stable gel formation, even at temperatures as low as −20° C.
Composition A was prepared as described in the above table.
At room temperature the solution was viscous in consistency. The solution solidified at 15° C. […] Such phase transitions in a commercial product are unacceptable.

Physical state of solution ([1]; 0.2 wt % solution of LMG in water, 4° C.): loose jelly-like solution | Temperature at which hard gels form ([1]; LMG 5-15 wt % in water): about 35 °C | melting point: ~ 60 °C
SMILES: CCCCCCCCCCCC(=O)N(C)CC(O)C(O)C(O)C(O)CO (stereo not drawn) [LMG, Lauroyl N-Methyl Glucamide]
